Assay results reported in patent publication US9844550B2, “Phtalazinone derivatives and manufacturing process thereof” (ILDONG PHARM CO., LTD., priority 2013, dated 2017).

What was measured:
[1] = test system: Capan-1 pancreatic cancer cell line; experiment: Cell viability assay (Capan-1); assay type: cell-based; conditions: Homo sapiens, 240 h; Capan-1 cells, treated 10 days
Protocol: 3. Cell Viability Assay (Capan-1)
Cell viability assay was performed by using Capan-1 cell line to measure cytotoxicity of compounds in the present invention. Capan-1 pancreatic cancer cell line was seeded into 96-well plates at 37° C. under 5% CO2 atmosphere using IMDM (Sigma) containing 10% FBS (Hyclone). After 24 hr incubation, cells were treated with the invented compounds at various concentrations for 10 days. After 7-day incubation, the medium was changed. 10 days later, A fluorescence reagent was used to determine the IC50 values.

[2] = test system: MDA-MB-436 breast cancer cell line; experiment: Cell viability assay (MDA-MB-436); assay type: cell-based; conditions: Homo sapiens, 144 h; MDA-MB-436 cells, treated 6 days
Protocol: 2. Cell Viability Assay (MDA-MB-436)
Cell viability assay was performed by using MDA-MB-436 cell line to measure cytotoxicity of compounds in the present invention. MDA-MB-436 breast cancer cell line was seeded into 96-well plates at 37° C. under 5% CO2 atmosphere using DMEM/F12 (Gibco) containing 10% FBS (Hyclone). After 24 hr incubation, cells were treated with the invented compounds at various concentrations for 6 days. The medium was changed every 3 day. 6 days later, A fluorescence reagent was used to determine the IC50 values.

[3] = Mouse pharmacokinetics; assay type: in vivo; parameters: concentration or dose not given beside the values; conditions: Balb/c male mice, blood samples 15 to 1140 min, LC-MS/MS
Protocol: To evaluate the pharmacokinetics test, the invented compounds (from I-25 to I-1171) were determined as follows. Blood samples are collected at 15, 30, 60, 120, 240, 480, 1140 min. Quantification is by using a LC-MS/MS method specific to the selected compound. Pharmacokinetics parameters are calculated using WinNonLinnon compartmental analysis software.

SMILES	IC50 [1]	IC50 [2]	AUC [3]
O=C(c1cc(Cc2n[nH]c(=O)c3ccccc23)ccc1F)N1CC[C@@H](NC2CCC2)C1 [Compound I-30, (R)-4-(3-(3-(cyclobutylamino)pyrrolidine-1-carbonyl)-4-fluorobenzyl)phthalazin-1(2H)-one]	–	50 to 300 nM	521 ng·h/mL
CC(CO)NC1CN(C(=O)c2cc(Cc3n[nH]c(=O)c4ccccc34)ccc2F)C1 (stereo not shown) [Compound I-36, 4-(4-fluoro-3-(3-((1-hydroxypropan-2-yl)amino)azetidine-1-carbonyl)benzyl)phthalazin-1(2H)-one]	300 to 1000 nM	5 to 50 nM	–
O=C(c1cc(Cc2n[nH]c(=O)c3ccccc23)ccc1F)N1CC(NC2CCC2)C1 [Compound I-25, 4-(3-(3-(cyclobutylamino)azetidine-1-carbonyl)-4-fluorobenzyl)phthalazin-1(2H)-one]	300 to 1000 nM	5 to 50 nM	831 ng·h/mL
O=C(c1cc(Cc2n[nH]c(=O)c3ccccc23)ccc1F)N1CC(N2CCC2)C1 [Compound I-75, 4-(3-([1,3′-biazetidine]-1′-carbonyl)-4-fluorobenzyl)phthalazin-1(2H)-one]	–	5 to 50 nM	475 ng·h/mL
O=C(c1cc(Cc2n[nH]c(=O)c3ccccc23)ccc1F)N1CC(NC2CC2)C1 [Compound I-26, 4-(3-(3-(cyclopropylamino)azetidine-1-carbonyl)-4-fluorobenzyl)phthalazin-1(2H)-one]	300 to 1000 nM	5 to 50 nM	3350 ng·h/mL
CCC(C)NC1CN(C(=O)c2cc(Cc3n[nH]c(=O)c4ccccc34)ccc2F)C1 (stereo not shown) [Compound I-44, 4-(3-(3-(sec-butylamino)azetidine-1-carbonyl)-4-fluorobenzyl)phthalazin-1(2H)-one]	300 to 1000 nM	≤ 5 nM	–
CC(C)C(C)NC1CN(C(=O)c2cc(Cc3n[nH]c(=O)c4ccccc34)ccc2F)C1 (stereo not shown) [Compound I-41, 4-(4-fluoro-3-(3-((3-methylbutan-2-yl)amino)azetidine-1-carbonyl)benzyl)phthalazin-1(2H)-one]	300 to 1000 nM	≤ 5 nM	–
CC(NC1CN(C(=O)c2cc(Cc3n[nH]c(=O)c4ccccc34)ccc2F)C1)C1CC1 (stereo not shown) [Compound I-42, 4-(3-(3-((1-cyclopropylethyl)amino)azetidine-1-carbonyl)-4-fluorobenzyl)phthalazin-1(2H)-one]	300 to 1000 nM	≤ 5 nM	–
O=C(c1cc(Cc2n[nH]c(=O)c3ccccc23)ccc1F)N1CC[C@@H](NC2CCCC2)C1 [Compound I-31, (R)-4-(3-(3-(cyclopentylamino)pyrrolidine-1-carbonyl)-4-fluorobenzyl)phthalazin-1(2H)-one]	50 to 300 nM	5 to 50 nM	–
O=C(c1cc(Cc2n[nH]c(=O)c3ccccc23)ccc1F)N1CC(NC2CC3CCC2C3)C1 (stereo not shown) [Compound I-43, 4-(3-(3-(bicyclo[2.2.1]heptan-2-ylamino)azetidine-1-carbonyl)-4-fluorobenzyl)phthalazin-1(2H)-one]	300 to 1000 nM	5 to 50 nM	–
O=C(c1cc(Cc2n[nH]c(=O)c3ccccc23)ccc1F)N1CC(N2CCCC2)C1 [Compound I-76, 4-(4-fluoro-3-(3-(pyrrolidin-1-yl)azetidine-1-carbonyl)benzyl)phthalazin-1(2H)-one]	–	5 to 50 nM	–
CN(C)[C@H]1CCN(C(=O)C2CN(C(=O)c3cc(Cc4n[nH]c(=O)c5ccccc45)ccc3F)C2)C1 [Compound I-24, (S)-4-(3-(3-(3-(dimethylamino)pyrrolidine-1-carbonyl)azetidine-1-carbonyl)-4-fluorobenzyl)phthalazin-1(2H)-one]	–	300 to 1000 nM	–
CN(C1CCC1)C1CN(C(=O)c2cc(Cc3n[nH]c(=O)c4ccccc34)ccc2F)C1 [Compound I-71, 4-(3-(3-(cyclobutyl(methyl)amino)azetidine-1-carbonyl)-4-fluorobenzyl)phthalazin-1(2H)-one]	–	50 to 300 nM	–
CN(Cc1ccncc1)[C@@H]1CCN(C(=O)c2cc(Cc3n[nH]c(=O)c4ccccc34)ccc2F)C1 [Compound I-61, (R)-4-(4-fluoro-3-(3-(methyl(pyridin-4-ylmethyl)amino)pyrrolidine-1-carbonyl)benzyl)phthalazin-1(2H)-one]	–	50 to 300 nM	–
O=C(c1cc(Cc2n[nH]c(=O)c3ccccc23)ccc1F)N1CC(NC2CCCCC2)C1 [Compound I-28, 4-(3-(3-(cyclohexylamino)azetidine-1-carbonyl)-4-fluorobenzyl)phthalazin-1(2H)-one]	300 to 1000 nM	5 to 50 nM	–
CCC(CC)NC1CN(C(=O)c2cc(Cc3n[nH]c(=O)c4ccccc34)ccc2F)C1 [Compound I-40, 4-(4-fluoro-3-(3-(pentan-3-ylamino)azetidine-1-carbonyl)benzyl)phthalazin-1(2H)-one]	300 to 1000 nM	5 to 50 nM	–
O=C(c1cc(Cc2n[nH]c(=O)c3ccccc23)ccc1F)N1CC(C(=O)N2CCCC2)C1 [Compound I-22, 4-(4-fluoro-3-(3-(pyrrolidine-1-carbonyl)azetidine-1-carbonyl)benzyl)phthalazin-1(2H)-one]	–	50 to 300 nM	–

Other lines, results leading:

IC50 [1]	IC50 [2]	AUC [3]	SMILES
300 to 1000 nM	5 to 50 nM	–	COC[C@H](C)NC1CN(C(=O)c2cc(Cc3n[nH]c(=O)c4ccccc34)ccc2F)C1 [Compound I-82, (S)-4-(4-fluoro-3-(3-((1-methoxypropan-2-yl)amino)azetidine-1-carbonyl)benzyl)phthalazin-1(2H)-one]
300 to 1000 nM	≤ 5 nM	295 ng·h/mL	O=C(c1cc(Cc2n[nH]c(=O)c3ccccc23)ccc1F)N1CC(CN2CCCC2)C1 [Compound I-140, 4-(4-fluoro-3-(3-(pyrrolidin-1-ylmethyl)azetidine-1-carbonyl)benzyl)phthalazin-1(2H)-one]
–	≤ 5 nM	510 ng·h/mL	O=C(c1cc(Cc2n[nH]c(=O)c3ccccc23)ccc1F)N1CC[C@@H](Nc2ncccn2)C1 [Compound I-120, (R)-4-(4-fluoro-3-(3-(Pyrimidin-2-ylamino)pyrrolidine-1-carbonyl)benzyl)phthalazin-1(2H)-one]
–	5 to 50 nM	153 ng·h/mL	O=C(c1cc(Cc2n[nH]c(=O)c3ccccc23)ccc1F)N1CC[C@@H](N2CCC2)C1 [Compound I-135, (R)-4-(3-(3-(azetidin-1-yl)pyrrolidine-1-carbonyl)-4-fluorobenzyl)phthalazin-1(2H)-one]
300 to 1000 nM	5 to 50 nM	88.8 ng·h/mL	O=C(c1cc(Cc2n[nH]c(=O)c3ccccc23)ccc1F)N1CC(CN2CCC2)C1 [Compound I-142, 4-(3-(3-(azetidin-1-ylmethyl)azetidine-1-carbonyl)-4-fluorobenzyl)phthalazin-1(2H)-one]
300 to 1000 nM	300 to 1000 nM	–	CC(C#N)NC1CN(C(=O)c2cc(Cc3n[nH]c(=O)c4ccccc34)ccc2F)C1 (stereo not shown) [Compound I-100, 2-((1-(2-fluoro-5-((4-oxo-3,4-dihydrophthalazin-1-yl)methyl)benzoyl)azetidin-3-yl)amino)propanenitrile]
300 to 1000 nM	5 to 50 nM	193 ng·h/mL	O=C(c1cc(Cc2n[nH]c(=O)c3ccccc23)ccc1F)N1CC(CN2CCCCC2)C1 [Compound I-141, 4-(4-fluoro-3-(3-(piperidin-1-ylmethyl)azetidine-1-carbonyl)benzyl)phthalazin-1(2H)-one]
50 to 300 nM	≤ 5 nM	673 ng·h/mL	O=C(c1cc(Cc2n[nH]c(=O)c3ccccc23)ccc1F)N1CC(CNC2CC2)C1 [Compound I-143, 4-(3-(3-((cyclopropylamino)methyl)azetidine-1-carbonyl)-4-fluorobenzyl)phthalazin-1(2H)-one]
5 to 50 nM	≤ 5 nM	–	O=C(c1cc(Cc2n[nH]c(=O)c3ccccc23)ccc1F)N1CC[C@@H](Nc2cc(C(F)(F)F)ccn2)C1 [Compound I-132, (R)-4-(4-fluoro-3-(3-((4-(trifluoromethyl)pyridin-2-yl)amino)pyrrolidine-1-carbonyl)benzyl)phthalazin-1(2H)-one]
–	≤ 5 nM	472 ng·h/mL	O=C(c1cc(Cc2n[nH]c(=O)c3ccccc23)ccc1F)N1CC(CNC2CCC2)C1 [Compound I-148, 4-(3-(3-((cyclobutylamino)methyl)azetidine-1-carbonyl)-4-fluorobenzyl)phthalazin-1(2H)-one]
–	50 to 300 nM	–	O=C(c1cc(Cc2n[nH]c(=O)c3ccccc23)ccc1F)N1CC(NCCC(F)(F)F)C1 [Compound I-134, 4-(4-fluoro-3-(3-((3,3,3-trifluoropropyl)amino)azetidine-1-carbonyl)benzyl)phthalazin-1(2H)-one]
–	300 to 1000 nM	–	CN(C)C(=O)c1cccnc1N[C@@H]1CCN(C(=O)c2cc(Cc3n[nH]c(=O)c4ccccc34)ccc2F)C1 [Compound I-129, (R)-2-((1-(2-fluoro-5-((4-oxo-3,4-dihydrophthalazin-1-yl)methyl)benzoyl)pyrrolidin-3-yl)amino)-N,N-dimethylnicotinamide]
–	300 to 1000 nM	–	CN(CC1CN(C(=O)c2cc(Cc3n[nH]c(=O)c4ccccc34)ccc2F)C1)C1CC1 [Compound I-154, 4-(3-(3-((cyclopropyl(methyl)amino)methyl)azetidine-1-carbonyl)-4-fluorobenzyl)phthalazin-1(2H)-one]
